Data published in patent US4245106A, “Process for the preparation of 1-alkyl-3-aryl-4-pyrazolecarboxylates” (Monsanto Company, priority 1979, dated 1981).

Experiments:
Assay type in all cases: in vivo
Nutsedge [1] = assay: post-emergent herbicidal activity test
Method: (§1) The post-emergent tests were conducted as follows. The active ingredients are applied in spray form to two or three-week old specimens of various plant species. The spray, a solution or wettable powder suspension containing the appropriate rate of active ingredient to give the desired test rate and a surfactant, is applied to the plants. The treated plants are placed in a greenhouse and unless otherwise noted approximately four weeks later the effects are observed and recorded.

Cocklebur [2] = assay: post-emergent herbicidal activity test
Method: as §1

Bromus tectorum [3] = assay: post-emergent herbicidal activity test
Method: as §1

Johnsongrass [4] = assay: post-emergent herbicidal activity test
Method: as §1

Velvetleaf [5] = assay: post-emergent herbicidal activity test
Method: as §1

Morningglory [6] = assay: post-emergent herbicidal activity test
Method: as §1

Smartweed [7] = assay: post-emergent herbicidal activity test
Method: as §1

Canada Thistle [8] = assay: post-emergent herbicidal activity test
Method: as §1

Lambsquarter [9] = assay: post-emergent herbicidal activity test
Method: as §1

Quackgrass [10] = assay: post-emergent herbicidal activity test
Method: as §1

Barnyard grass [11] = assay: post-emergent herbicidal activity test
Method: as §1

Nutsedge [12] = assay: pre-emergent herbicidal activity test
Method: (§2) Table II summarizes results of tests conducted to determine the pre-emergent as well as the post-emergent herbicidal activity of the compounds. The pre-emergent test was conducted as follows:
(§3) A good grade of top soil was placed in aluminum pans and compacted to a depth of three-eighths to one-half inch from the top of the pan. On the top of the soil was placed a predetermined number of seeds or vegetative propagules of various plant species. The soil required to level fill the pans after seeding or adding vegetative propagules was weighed into a pan. A known amount of the active ingredient applied in a solvent or as a wettable powder and the soil were thoroughly mixed, and used as a cover layer for prepared pans. After treatment the pans were moved into a greenhouse bench where they were watered from below as needed to give adequate moisture for germination and growth.
(§4) A herbicial rating code was used to signify the extent of phytotoxicity of each species. The rating are defined as follows: […]

Cocklebur [13] = assay: pre-emergent herbicidal activity test
Method: as §2, §3, §4

Bromus tectorum [14] = assay: pre-emergent herbicidal activity test
Method: as §2, §3, §4

Johnsongrass [15] = assay: pre-emergent herbicidal activity test
Method: as §2, §3, §4

Velvetleaf [16] = assay: pre-emergent herbicidal activity test
Method: as §2, §3, §4

Morningglory [17] = assay: pre-emergent herbicidal activity test
Method: as §2, §3, §4

Smartweed [18] = assay: pre-emergent herbicidal activity test
Method: as §2, §3, §4

Canada Thistle [19] = assay: pre-emergent herbicidal activity test
Method: as §2, §3, §4

Lambsquarter [20] = assay: pre-emergent herbicidal activity test
Method: as §2, §3, §4

Quackgrass [21] = assay: pre-emergent herbicidal activity test
Method: as §2, §3, §4

Barnyard grass [22] = assay: pre-emergent herbicidal activity test
Method: as §2, §3, §4

[23] = 11.2 Kg/Ha, approximately four weeks later
[24] = *11.2 Kg/Ha, observed approximately 14 days after treatment
[25] = 11.2 Kg/Ha, approximately 28 days after seeding and treating
Also: ranges in brackets are in %.

Compound: CCOC(=O)c1cn(CC)nc1-c1cccc(C(F)(F)F)c1 [Example 1]
- Post-Emergent herbicidal rating, G Nutsedge (Nutsedge [1]; [23]): 0 (0-24)
- Post-Emergent herbicidal rating, G Nutsedge (Nutsedge [1]; [24]): 1 (25-49)
- Post-Emergent herbicidal rating, B Cocklebur (Cocklebur [2]; [23]): 1 (25-49)
- Post-Emergent herbicidal rating, B Cocklebur (Cocklebur [2]; [24]): 1 (25-49)
- Post-Emergent herbicidal rating, J Bromus tectorum (Bromus tectorum [3]; [23]): 0 (0-24)
- Post-Emergent herbicidal rating, J Bromus tectorum (Bromus tectorum [3]; [24]): 1 (25-49)
- Post-Emergent herbicidal rating, I Johnsongrass (Johnsongrass [4]; [23]): 0 (0-24)
- Post-Emergent herbicidal rating, I Johnsongrass (Johnsongrass [4]; [24]): 1 (25-49)
- Post-Emergent herbicidal rating, C Velvetleaf (Velvetleaf [5]; [23]): 1 (25-49)
- Post-Emergent herbicidal rating, C Velvetleaf (Velvetleaf [5]; [24]): 1 (25-49)
- Post-Emergent herbicidal rating, D Morningglory (Morningglory [6]; [23]): 1 (25-49)
- Post-Emergent herbicidal rating, D Morningglory (Morningglory [6]; [24]): 1 (25-49)
- Post-Emergent herbicidal rating, F Smartweed (Smartweed [7]; [23]): 0 (0-24)
- Post-Emergent herbicidal rating, F Smartweed (Smartweed [7]; [24]): 1 (25-49)
- Post-Emergent herbicidal rating, A Canada Thistle (Canada Thistle [8]; [23]): 1 (25-49)
- Post-Emergent herbicidal rating, A Canada Thistle (Canada Thistle [8]; [24]): 1 (25-49)
- Post-Emergent herbicidal rating, E Lambsquarter (Lambsquarter [9]; [23]): 1 (25-49)
- Post-Emergent herbicidal rating, E Lambsquarter (Lambsquarter [9]; [24]): 1 (25-49)
- Post-Emergent herbicidal rating, H Quackgrass (Quackgrass [10]; [23]): 0 (0-24)
- Post-Emergent herbicidal rating, H Quackgrass (Quackgrass [10]; [24]): 1 (25-49)
- Post-Emergent herbicidal rating, K Barnyard grass (Barnyard grass [11]; [23]): 0 (0-24)
- Post-Emergent herbicidal rating, K Barnyard grass (Barnyard grass [11]; [24]): 1 (25-49)
- Pre-Emergent herbicidal rating, G Nutsedge (Nutsedge [12]; [25]): 0 (0-24)
- Pre-Emergent herbicidal rating, G Nutsedge (Nutsedge [12]; [24]): 0 (0-24)
- Pre-Emergent herbicidal rating, B Cocklebur (Cocklebur [13]; [25]): 0 (0-24)
- Pre-Emergent herbicidal rating, B Cocklebur (Cocklebur [13]; [24]): 1 (25-49)
- Pre-Emergent herbicidal rating, J Bromus tectorum (Bromus tectorum [14]; [25]): 1 (25-49)
- Pre-Emergent herbicidal rating, J Bromus tectorum (Bromus tectorum [14]; [24]): 2 (50-74)
- Pre-Emergent herbicidal rating, I Johnsongrass (Johnsongrass [15]; [25]): 0 (0-24)
- Pre-Emergent herbicidal rating, I Johnsongrass (Johnsongrass [15]; [24]): 0 (0-24)
- Pre-Emergent herbicidal rating, C Velvetleaf (Velvetleaf [16]; [25]): 3 (75-100)
- Pre-Emergent herbicidal rating, C Velvetleaf (Velvetleaf [16]; [24]): 3 (75-100)
- Pre-Emergent herbicidal rating, D Morningglory (Morningglory [17]; [25]): 0 (0-24)
- Pre-Emergent herbicidal rating, D Morningglory (Morningglory [17]; [24]): 2 (50-74)
- Pre-Emergent herbicidal rating, F Smartweed (Smartweed [18]; [25]): 1 (25-49)
- Pre-Emergent herbicidal rating, F Smartweed (Smartweed [18]; [24]): 3 (75-100)
- Pre-Emergent herbicidal rating, A Canada Thistle (Canada Thistle [19]; [25]): 1 (25-49)
- Pre-Emergent herbicidal rating, A Canada Thistle (Canada Thistle [19]; [24]): 1 (25-49)
- Pre-Emergent herbicidal rating, E Lambsquarter (Lambsquarter [20]; [25]): 3 (75-100)
- Pre-Emergent herbicidal rating, E Lambsquarter (Lambsquarter [20]; [24]): 3 (75-100)
- Pre-Emergent herbicidal rating, H Quackgrass (Quackgrass [21]; [25]): 0 (0-24)
- Pre-Emergent herbicidal rating, H Quackgrass (Quackgrass [21]; [24]): 1 (25-49)
- Pre-Emergent herbicidal rating, K Barnyard grass (Barnyard grass [22]; [25]): 3 (75-100)
- Pre-Emergent herbicidal rating, K Barnyard grass (Barnyard grass [22]; [24]): 3 (75-100)

Compound: CCOC(=O)c1cn(C)nc1-c1cc(C(F)(F)F)cc(C(F)(F)F)c1 [Example 10]
- Post-Emergent herbicidal rating, G Nutsedge (Nutsedge [1]; [23]): 0 (0-24)
- Post-Emergent herbicidal rating, G Nutsedge (Nutsedge [1]; [24]): 0 (0-24)
- Post-Emergent herbicidal rating, B Cocklebur (Cocklebur [2]; [23]): 2 (50-74)
- Post-Emergent herbicidal rating, B Cocklebur (Cocklebur [2]; [24]): 2 (50-74)
- Post-Emergent herbicidal rating, J Bromus tectorum (Bromus tectorum [3]; [23]): 0 (0-24)
- Post-Emergent herbicidal rating, J Bromus tectorum (Bromus tectorum [3]; [24]): 0 (0-24)
- Post-Emergent herbicidal rating, I Johnsongrass (Johnsongrass [4]; [23]): 0 (0-24)
- Post-Emergent herbicidal rating, I Johnsongrass (Johnsongrass [4]; [24]): 0 (0-24)
- Post-Emergent herbicidal rating, C Velvetleaf (Velvetleaf [5]; [23]): 0 (0-24)
- Post-Emergent herbicidal rating, C Velvetleaf (Velvetleaf [5]; [24]): 1 (25-49)
- Post-Emergent herbicidal rating, D Morningglory (Morningglory [6]; [23]): 2 (50-74)
- Post-Emergent herbicidal rating, D Morningglory (Morningglory [6]; [24]): 2 (50-74)
- Post-Emergent herbicidal rating, F Smartweed (Smartweed [7]; [23]): 0 (0-24)
- Post-Emergent herbicidal rating, F Smartweed (Smartweed [7]; [24]): 1 (25-49)
- Post-Emergent herbicidal rating, A Canada Thistle (Canada Thistle [8]; [23]): 1 (25-49)
- Post-Emergent herbicidal rating, A Canada Thistle (Canada Thistle [8]; [24]): 2 (50-74)
- Post-Emergent herbicidal rating, E Lambsquarter (Lambsquarter [9]; [23]): 2 (50-74)
- Post-Emergent herbicidal rating, E Lambsquarter (Lambsquarter [9]; [24]): 1 (25-49)
- Post-Emergent herbicidal rating, H Quackgrass (Quackgrass [10]; [23]): 0 (0-24)
- Post-Emergent herbicidal rating, H Quackgrass (Quackgrass [10]; [24]): 0 (0-24)
- Post-Emergent herbicidal rating, K Barnyard grass (Barnyard grass [11]; [23]): 1 (25-49)
- Post-Emergent herbicidal rating, K Barnyard grass (Barnyard grass [11]; [24]): 0 (0-24)
- Pre-Emergent herbicidal rating, G Nutsedge (Nutsedge [12]; [25]): 0 (0-24)
- Pre-Emergent herbicidal rating, G Nutsedge (Nutsedge [12]; [24]): 0 (0-24)
- Pre-Emergent herbicidal rating, B Cocklebur (Cocklebur [13]; [25]): 0 (0-24)
- Pre-Emergent herbicidal rating, B Cocklebur (Cocklebur [13]; [24]): 0 (0-24)
- Pre-Emergent herbicidal rating, J Bromus tectorum (Bromus tectorum [14]; [25]): 1 (25-49)
- Pre-Emergent herbicidal rating, J Bromus tectorum (Bromus tectorum [14]; [24]): 1 (25-49)
- Pre-Emergent herbicidal rating, I Johnsongrass (Johnsongrass [15]; [25]): 0 (0-24)
- Pre-Emergent herbicidal rating, I Johnsongrass (Johnsongrass [15]; [24]): 0 (0-24)
- Pre-Emergent herbicidal rating, C Velvetleaf (Velvetleaf [16]; [25]): 0 (0-24)
- Pre-Emergent herbicidal rating, C Velvetleaf (Velvetleaf [16]; [24]): 1 (25-49)
- Pre-Emergent herbicidal rating, D Morningglory (Morningglory [17]; [25]): 0 (0-24)
- Pre-Emergent herbicidal rating, D Morningglory (Morningglory [17]; [24]): 1 (25-49)
- Pre-Emergent herbicidal rating, F Smartweed (Smartweed [18]; [25]): 0 (0-24)
- Pre-Emergent herbicidal rating, F Smartweed (Smartweed [18]; [24]): 1 (25-49)
- Pre-Emergent herbicidal rating, A Canada Thistle (Canada Thistle [19]; [25]): 0 (0-24)
- Pre-Emergent herbicidal rating, A Canada Thistle (Canada Thistle [19]; [24]): 1 (25-49)
- Pre-Emergent herbicidal rating, E Lambsquarter (Lambsquarter [20]; [25]): 3 (75-100)
- Pre-Emergent herbicidal rating, E Lambsquarter (Lambsquarter [20]; [24]): 3 (75-100)
- Pre-Emergent herbicidal rating, H Quackgrass (Quackgrass [21]; [25]): 0 (0-24)
- Pre-Emergent herbicidal rating, H Quackgrass (Quackgrass [21]; [24]): 0 (0-24)
- Pre-Emergent herbicidal rating, K Barnyard grass (Barnyard grass [22]; [25]): 2 (50-74)
- Pre-Emergent herbicidal rating, K Barnyard grass (Barnyard grass [22]; [24]): 3 (75-100)
